These results are taken from PubChem BioAssay (NCI).

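Each compound was tested at five concentrations against cells in 96-well plates for 48 hours. Abbreviation: GI50, concentration required for 50% inhibition of growth. The concentration for full growth arrest is given as TGI.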

Some test systems named below: A498 renal; HOP-62 NSCLC; HT29 colon; UACC-62 melanoma; SK-MEL-28 melanoma; RXF 393 renal; UO-31 renal; SF-268 CNS; MOLT-4 leukemia; SNB-19 CNS.
Common to all, as to experiment: NCI anticancer screen, dose series, 48 h

With `CC(C)(N)CO[C@H]1C[C@H]2CC[C@@]1(C)C2(C)C`, the TGI amounted to 82.1 µM in the test with A498 renal; 44 µM in the test with HOP-62 NSCLC; 34 µM in the test with HT29 colon; 34.3 µM with UACC-62 melanoma; 27.4 µM with SK-MEL-28 melanoma; 28.2 µM with RXF 393 renal. Also, the TGI in the test with UO-31 renal was 37.7 µM; in the test with SF-268 CNS, above 100 µM; in the test on MOLT-4 leukemia it was 80.9 µM; in the test on SNB-19 CNS it was 68.5 µM.
For the compound `COc1ccc(NS(=O)c2ccc(-c3ccccc3)cc2)cc1` (stereo unspecified), the TGI in the test with HOP-62 NSCLC, in the test with HT29 colon, in the test on SK-MEL-28 melanoma, in the test with RXF 393 renal, with UO-31 renal and in the test on SF-268 CNS was above 100 µM in each case. Further, the TGI in the test with MOLT-4 leukemia and in the test with SNB-19 CNS was above 100 µM each time.
Consider `NCC[Se][Se]CCN`, for which the TGI in the test on A498 renal is 23.8 µM; with HOP-62 NSCLC it was 21.3 µM; in the test on HT29 colon it was 26.9 µM; in the test on UACC-62 melanoma it was 31.1 µM; in the test with SK-MEL-28 melanoma, 29.7 µM; in the test on RXF 393 renal, 32.5 µM. The TGI with UO-31 renal is 13.3 µM; in the test with SF-268 CNS it was 32.5 µM; in the test on MOLT-4 leukemia, above 100 µM; in the test with SNB-19 CNS, 20.7 µM.
As to `O=S1(=O)NNC(=NCc2ccc(Cl)c(Cl)c2)c2ccccc21`, the TGI in the test with A498 renal, in the test with HT29 colon, with UACC-62 melanoma, in the test on RXF 393 renal, in the test on UO-31 renal and with SF-268 CNS was above 100 µM in each case. Further, the TGI is 98.8 µM in the test with MOLT-4 leukemia and above 100 µM with SNB-19 CNS.
Turning to `COc1cc2cc[n+](C)c(Cc3ccccc3)c2cc1OC`, the TGI with A498 renal, with HT29 colon, in the test with UACC-62 melanoma, in the test on SK-MEL-28 melanoma, with RXF 393 renal and in the test on UO-31 renal was above 100 µM each time. Moreover, the TGI in the test on SF-268 CNS, with MOLT-4 leukemia and with SNB-19 CNS was above 100 µM each time.
Turning to `CNC(C)Cc1ccccc1O` (stereo unspecified), the TGI in the test on A498 renal, in the test on HOP-62 NSCLC, in the test on HT29 colon, in the test with UACC-62 melanoma, in the test with SK-MEL-28 melanoma and in the test with RXF 393 renal was above 100 µM in each case. Moreover, the TGI with UO-31 renal, in the test with SF-268 CNS, in the test with MOLT-4 leukemia and with SNB-19 CNS was above 100 µM throughout.
In the case of `Nc1ccc2c(c1)C1=NNC(=O)CC1C2` (stereo unspecified), the TGI in the test on A498 renal, in the test on HOP-62 NSCLC, in the test with HT29 colon, in the test on UACC-62 melanoma, in the test on SK-MEL-28 melanoma and in the test with RXF 393 renal was above 100 µM each time. For the same compound, the TGI in the test with UO-31 renal, in the test with SF-268 CNS, in the test on MOLT-4 leukemia and with SNB-19 CNS was above 100 µM throughout.
In the case of `CC1SC(c2ccccc2)N(Nc2c3ccccc3nc3ccccc23)C1=O` (stereo unspecified), the TGI was above 100 µM in the test on HOP-62 NSCLC; above 100 µM in the test on HT29 colon; above 100 µM in the test with UACC-62 melanoma; above 100 µM in the test on SK-MEL-28 melanoma; 82.3 µM with UO-31 renal; above 100 µM in the test with SF-268 CNS. The TGI in the test on MOLT-4 leukemia and with SNB-19 CNS was above 100 µM each time.
Turning to `O=C(N/C(=C\c1ccccc1[N+](=O)[O-])c1nc2ccccc2[nH]1)c1ccccc1`, the TGI in the test with HT29 colon, with UACC-62 melanoma, in the test on SK-MEL-28 melanoma, with RXF 393 renal, in the test with UO-31 renal and in the test with MOLT-4 leukemia was above 100 µM throughout. Also, in the test on SNB-19 CNS, the TGI is above 100 µM.
Take `CCC(CS(=O)(=O)O)[N+](=O)[O-]` (stereo unspecified): the TGI with A498 renal, in the test on HOP-62 NSCLC, in the test with HT29 colon, with UACC-62 melanoma, in the test on SK-MEL-28 melanoma and in the test on RXF 393 renal was above 100 µM throughout. Also, the TGI in the test with UO-31 renal, in the test with SF-268 CNS, in the test with MOLT-4 leukemia and with SNB-19 CNS was above 100 µM throughout.
With `CN1CCN(c2ccc(-c3ccc4ncc(C#N)c(Nc5ccc(F)c(Cl)c5)c4c3)cc2)CC1`, the GI50 with A498 renal was 2.43 µM; in the test on HOP-62 NSCLC it was 2.22 µM; in the test on HT29 colon, 2.33 µM; in the test with UACC-62 melanoma, 1.87 µM; in the test with SK-MEL-28 melanoma it was 1.79 µM; in the test on RXF 393 renal it was 1.62 µM. The GI50 with UO-31 renal was 0.895 µM; in the test on SF-268 CNS, 2.87 µM; in the test on MOLT-4 leukemia, 1.97 µM; in the test with SNB-19 CNS, 3.36 µM. In addition, the TGI with A498 renal was 12.4 µM; in the test on HOP-62 NSCLC, 7.55 µM; in the test on HT29 colon it was 8.32 µM; in the test on UACC-62 melanoma it was 3.75 µM; in the test on SK-MEL-28 melanoma, 3.66 µM; in the test with RXF 393 renal, 5.54 µM. In addition, the TGI in the test on UO-31 renal was determined as 6.13 µM; in the test on SF-268 CNS, 15.9 µM; with MOLT-4 leukemia, 5.53 µM; in the test on SNB-19 CNS, 19.2 µM.
With `CN(C)CCNc1ccc2ncnc3c2c1C(=O)c1ccccc1-3`, the TGI is 9.25 µM with A498 renal; 3.25 µM in the test on HOP-62 NSCLC; 2.98 µM in the test with HT29 colon; 4.92 µM in the test with UACC-62 melanoma; 10.9 µM with SK-MEL-28 melanoma; 2.32 µM in the test on RXF 393 renal. For the same compound, the TGI with UO-31 renal turned out to be 12.9 µM; in the test on SF-268 CNS, 4.48 µM; with MOLT-4 leukemia it was 2.31 µM; in the test with SNB-19 CNS, 29.8 µM.
Regarding `O=[N+]([O-])c1ccc(N=Nc2c(O)ccc3cc(S(=O)(=O)O)ccc23)cc1`, the TGI with A498 renal, in the test with HOP-62 NSCLC, in the test with HT29 colon, with UACC-62 melanoma, in the test on SK-MEL-28 melanoma and with RXF 393 renal was above 100 µM in each case. In addition, the TGI in the test on UO-31 renal, in the test on SF-268 CNS, in the test on MOLT-4 leukemia and with SNB-19 CNS was above 100 µM throughout.
Consider `C=C(C)[C@@H]1CC[C@]2(C)CC[C@]3(C)[C@H](CC[C@@H]4[C@@]5(C)CC[C@H](OC(=O)c6ccccc6)C(C)(C)[C@@H]5CC[C@]43C)[C@@H]12`, for which the TGI in the test on A498 renal, with HOP-62 NSCLC, with HT29 colon, with UACC-62 melanoma, in the test with SK-MEL-28 melanoma and in the test on UO-31 renal was above 100 µM in each case. The TGI in the test with SF-268 CNS, in the test on MOLT-4 leukemia and in the test with SNB-19 CNS was above 100 µM throughout.
As to `CO[C@H]1[C@@H](O)[C@@H](C)O[C@@H](O[C@H]2CC[C@@]3(C)[C@H](CC[C@@H]4[C@@H]3CC[C@]3(C)[C@@H](C5=CC(=O)OC5)CC[C@]43O)C2)[C@@H]1O`, the TGI stood at 0.813 µM in the test with A498 renal; 0.00943 µM in the test on HOP-62 NSCLC; 0.0504 µM with HT29 colon; 0.0228 µM in the test on UACC-62 melanoma; 1.01 µM in the test with SK-MEL-28 melanoma; 0.00617 µM in the test with RXF 393 renal. In addition, the TGI with UO-31 renal came to 0.0108 µM; in the test on SF-268 CNS, 0.0366 µM; in the test with MOLT-4 leukemia, 0.436 µM; in the test on SNB-19 CNS, 0.211 µM.
As for `O=c1[nH][nH]c(=O)[nH]1`, the TGI with HOP-62 NSCLC, in the test with HT29 colon, in the test on UACC-62 melanoma, in the test on SK-MEL-28 melanoma, in the test on RXF 393 renal and in the test with UO-31 renal was above 100 µM each time. Also, the TGI in the test on SF-268 CNS, with MOLT-4 leukemia and in the test on SNB-19 CNS was above 100 µM throughout.
As for `Cc1nc2ccccc2c(=O)n1-c1n[nH]c2ccccc12`, the TGI in the test on A498 renal, with HOP-62 NSCLC, in the test with HT29 colon, in the test on UACC-62 melanoma, in the test on SK-MEL-28 melanoma and in the test with RXF 393 renal was above 100 µM throughout. The TGI in the test with UO-31 renal, in the test with SF-268 CNS, in the test with MOLT-4 leukemia and with SNB-19 CNS was above 100 µM throughout.
`CCn1nc(C)c2c1C(=O)NC(C)C(=O)N2` (stereo unspecified): the TGI with A498 renal, with HT29 colon, with UACC-62 melanoma, in the test with SK-MEL-28 melanoma, in the test with RXF 393 renal and in the test on UO-31 renal was above 100 µM each time. For the same compound, the TGI with SF-268 CNS and in the test on SNB-19 CNS was above 100 µM throughout.
`CC(CN(C)C)C(=O)c1ccccc1C(=O)O` (stereo unspecified): the TGI with A498 renal was above 100 µM; in the test on HOP-62 NSCLC it was 85.8 µM; with HT29 colon it was above 100 µM; in the test with UACC-62 melanoma it was 51.3 µM; in the test with SK-MEL-28 melanoma, above 100 µM; in the test with RXF 393 renal, above 100 µM. Also, the TGI is above 100 µM in the test on UO-31 renal, above 100 µM with SF-268 CNS, 70.1 µM in the test on MOLT-4 leukemia and above 100 µM in the test on SNB-19 CNS.
